System: HepG2 + U0126, LDLR mRNA qRT-PCR, 6 h
Assay: MEK-dependence of LDLR transcript upregulation – cell-based, HepG2, U0126, RT-PCR, mechanism study for Trib1 inducer project, late-stage follow-up (AID 1053163)
Details: stronger effect = higher value

SMILES | LDLR mRNA fold induction
CN1C(=O)c2cc(NC(=O)c3ccc(C(F)(F)F)cc3)ccc2OC[C@@H]2O[C@@H](CC(=O)NC3Cc4ccccc4C3)CC[C@@H]21 | 10
CN1C(=O)c2cc(NC(=O)c3ccc(C(F)(F)F)cc3)ccc2OC[C@@H]2O[C@H](CC(=O)NC3Cc4ccccc4C3)CC[C@@H]21 | 2.5

Source: PubChem BioAssay AID1053163 (Broad Institute, 2014)
